Source: US4425356A, “Lankacidin derivatives used in swine husbandry” (Takeda Chemical Industries, Ltd., priority 1980, dated 1984)
In brackets after ≈: the same amount, converted by molar mass. Where two headings read alike, the source gives them in different places.

Tests used:
[1] = tested on: Treponema hyodysenteriae 78/A strain; test: efficacy against swine dysentery under experimental infection conditions in pigs (drug in feed), Test Examples 5-7; assay type: in vivo, Landrace pigs
Protocol: Lankacidin C was tested for efficacy against swine dysentery under experimental infection conditions. Thus, twelve 6-week-old Landrace pigs (4 per group) were used. The test drug was admixed to a concentration of 100 ppm with the domestically formulated starter feed for young pigs without antibiotics. The animals were provided with the ration ad libitum. Infection of the pigs was effected by direct intragastrical administration to the SPF pigs of an inoculum prepared by preliminary anaerobic cultivation of the Treponema hyodysenteriae 78/A strain on a 5% horse blood added agar plate, mashing together with the culture medium and admixing with 5% mucin added phosphate buffer. Colonic contents and mucosa were collected from pigs which developed typical signs of swine dysentery, and diluted two-fold with 5% mucin added phosphate buffer. The dilution was used as the final inoculum, and 100 ml of the dilution was directly injected into the stomach of test pigs at the age of 7 weeks (fasted for 24 hours before infection). The pigs were fed for 21 days following infection.
The data are each the mean value per head for the 21day period from
infection to autopsy. Different alphabetic letters on the same line
indicate that there is a significant difference between the data to which
they are attached (P <0.05).
Lankacidin C was tested at concentrations in feed of 100 ppm and lower by the same method as in Test Example 5, with carbadox, a commonly used anti-swine-dysentery agent, for comparison.
The anti-swine-dysentery effects of 10 ppm each of lankacidin A and lankacidin C 14-propionate were examined by the procedure of Test Example 6.

[2] = tested on: Treponema hyodysenteriae; test: in vitro antibacterial activity (MIC, agar dilution method), Test Examples 1-3; assay type: cell-based; conditions: 37° C., 2 days, anaerobic; for MIC: Brachyspira hyodysenteriae, 48 h, read-out: Minimum Inhibitory Concentration
Protocol: Several agents were tested for in vitro antibacterial activity against Treponema hyodysenteriae, the pathogenic bacteria causing swine dysentery, by the method of testing drug sensitivity of Treponema hyodysenteriae (Kashiwazaki et al. Abstracts of Papers presented at the 82nd Meeting of the Japanese Society of Veterinary Science, page 101, 1976).
(1) Strains: These strains belong to Treponema hyodysenteriae isolated
from the bloody mucous faeces of dysenteric pigs in Japan.
(2) Antimicrobial activity assay: Agar dilution method
(3) Inoculum size: A loopful of bacterial suspension (10^6 CFU/ml)
(4) Cultural conditions: GasPak anaerobic system (BBL), 37° C., 2
Typical agents among compound (I) were tested for in vitro antibacterial activity by the same method as in Test Example 1.
The experimental conditions are the same as in Test Example 1 (Table 1).
Agents of compound (I) were tested for in vitro antibacterial activity by the same method as in Test Example 1.

[3] = tested on: Treponema hyodysenteriae 78/A strain; test: therapeutic administration in pigs showing clinical signs of swine dysentery, Test Examples 8-9; assay type: in vivo; conditions: for Condition of feces: Table 9, individual pig
Protocol: This test was conducted under the conditions of so-called therapeutic administration. […] The method of infection was the same as in Test Example 5. […] Simultaneously with showing of the signs, the pigs were provided with a feed containing 50 ppm of lankacidin C. […] After 2 days, the viable count for the pathogen in feces was below the detection limit (10^2 CFU/g).
The condition of feces was rated at one of the following four classes:
.circle. normal; loose; diarrheal; .circleincircle. mucous and bloody
count is below the detection limit (10^2 CFU/g).
The symbol * indicates those days on which the feed containing 50 ppm of
lankacidin C was given.
Lankacidins were tested for therapeutic effects in swine dysentery under therapeutic conditions in the same manner as in Test Example 8. The effects were judged based on the condition of feces.
The condition of feces was rated at one of the following four classes;
The symbol * indicates the days on which the feed containing 50 ppm of th

[4] = acute toxicity tests with mice; conditions: mouse, in vivo
Description: The toxicity of compound (I) in animals is very low.

[5] = 10 ppm in feed, 21-day test period
[6] = 10 ppm in feed, 21 day period, mean per head

CC(=O)OC1C=CC(C)=CCC(O)C=CC(C)=CC(NC(=O)C(C)=O)C2(C)C(=O)OC(C1)C(C)C2=O (stereo not drawn) [Lankacidin A, lankacidin A]
Number of pigs from which the pathogen was detected, in colonic mucosa ([1]; 10 ppm in feed): 0
Number of pigs from which the pathogen was detected, in feces ([1]; 10 ppm in feed): 0
Number of pigs showing colonic lesions ([1]; 10 ppm in feed): 0
Number of days on which diarrhea was observed [1, 5]: 0 days
Number of days on which mucous bloody stool was observed [1, 5]: 0 days
Number of pigs showing signs of infection/number of pigs used [1, 5]: 0/4
Body weight gain [1, 6]: 567 grams/day
Feed conversion [1, 6]: 1.76
Feed intake [1, 6]: 21.0 kg
Body weight at the time of completion of test ([1]; 10 ppm in feed, mean per head): 22.9 kg
effect against swine dysentery (in words) ([1]; pig, in vivo): distinctly effective against swine dysentery
MIC ([2]; strain 78/A): 3.13 µg/mL (≈ 6.24 µM)
MIC ([2]; strain CD1 (CD-1)): 6.25 µg/mL (≈ 12.5 µM)
MIC ([2]; strain DJ70P1): 6.25 µg/mL (≈ 12.5 µM)
MIC ([2]; strain MK-2): 3.13 µg/mL (≈ 6.24 µM)
Minimum Inhibitory Concentration ([2]; strain DJ70P1): 3.13 µg/mL
Minimum Inhibitory Concentration ([2]; strain MK-2): 6.25 µg/mL
therapeutic effect in swine dysentery (in words) ([3]; 50 ppm in feed): therapeutically effective
Condition of feces ([3]; 50 ppm in feed days 0-6, day 7): .circle.
Condition of feces ([3]; 50 ppm in feed days 0-6, day 8): .circle.
Condition of feces ([3]; 50 ppm in feed days 0-6, day 9): .circle.
Condition of feces ([3]; 50 ppm in feed days 0-6, day 10): .circle.
Condition of feces ([3]; 50 ppm in feed days 0-6, day 11): .circle.
Condition of feces ([3]; 50 ppm in feed days 0-6, day 12): .circle.
Condition of feces ([3]; 50 ppm in feed days 0-6, day 13): .circle.
Condition of feces ([3]; 50 ppm in feed days 0-6, day 14): .circle.
Condition of feces ([3]; 50 ppm in feed days 0-6, day 15): .circle.
Condition of feces ([3]; 50 ppm in feed days 0-6, day 16): .circle.
Condition of feces ([3]; 50 ppm in feed days 0-6, day 17): .circle.
Condition of feces ([3]; 50 ppm in feed days 0-6, day 18): .circle.
Condition of feces ([3]; 50 ppm in feed days 0-6, day 19): .circle.
Condition of feces ([3]; 50 ppm in feed days 0-6, day 20): .circle.
Condition of feces ([3]; 50 ppm in feed days 0-6, day 21): .circle.
Condition of feces ([3]; 50 ppm in feed, day 0 after manifestation of signs): .circleincircle.
Condition of feces ([3]; 50 ppm in feed, day 1): .circle.
Condition of feces ([3]; 50 ppm in feed, day 2): .circle.
Condition of feces ([3]; 50 ppm in feed, day 3): .circle.
Condition of feces ([3]; 50 ppm in feed, day 4): .circle.
Condition of feces ([3]; 50 ppm in feed, day 5): .circle.
Condition of feces ([3]; 50 ppm in feed, day 6): .circle.
LD50 ([4]; ip, intraperitoneal, read-out: intraperitoneal LD50): 8000 to 10000 mg/kg
LD50 ([4]; oral, read-out: oral LD50): > 10000 mg/kg
